Measured values from patent US20250186317A1, “SKIN CARE COMPOSITION COMPRISING LACTIC ACID, POLYHYDROXY ACID, AND ITS BUFFERING SALT” (The Procter & Gamble Company, priority 2023, published 2025).

System: skin
Assay: Bakuchiol penetration to skin from low pH formulations
Details: in low pH formulations compared to neutral/alkaline pH formulations

Penetration to skin: improved penetration to skin
Compound: C=C[C@@](C)(/C=C/c1ccc(O)cc1)CCC=C(C)C [bakuchiol, Bakuchiol]
